Patent publication US20250179051A1, “PYRIMIDINLY-OXY-QUINOLINE BASED HERBICIDAL COMPOUNDS” (SYNGENTA CROP PROTECTION AG, priority 2022, published 2025)

How the values were obtained:
Format in all cases: in vivo
Conditions in all cases: 250 g/ha, evaluated after 13 days, five-point scale
[1] = system: Amaranthus retoflexus (AMARE); test: Post-emergence herbicide glasshouse test
Experimental: (§1) Seeds of a variety of test species are sown in standard soil in pots Amaranthus retoflexus (AMARE), Amaranthus palmeri (AMAPA), Echinochloa crus-galli (ECHCG), Ipomoea hederacea (IPOHE), Setaria faberi (SETFA). After cultivation for one day (pre-emergence) or after 8 days cultivation (post-emergence) under controlled conditions in a glasshouse (at 24/16° C., day/night; 14 hours light; 65% humidity), the plants are sprayed with an aqueous spray solution derived from the formulation of the technical active ingredient in acetone/water (50:50) solution containing 0.5% Tween 20 (polyoxyethelyene sorbitan monolaurate, CAS RN 9005-64-5). Compounds are applied at 250 g/ha unless otherwise stated. The test plants are then grown in a glasshouse under controlled conditions in a glasshouse (at 24/16° C., day/night; 14 hours light; 65% humidity) and watered twice daily. After 13 days for pre and post-emergence, the test is evaluated for the percentage damage caused to the plant. The biological activities are shown in the following table on a five-point scale (5=81-100%; 4=61-80%; 3=41-60%; 2=21-40%; 1=0-20%).

[2] = system: Echinochloa crus-galli (ECHCG); test: Post-emergence herbicide glasshouse test
Experimental: as §1

[3] = system: Amaranthus palmeri (AMAPA); test: Post-emergence herbicide glasshouse test
Experimental: as §1

[4] = system: Ipomoea hederacea (IPOHE); test: Post-emergence herbicide glasshouse test
Experimental: as §1

[5] = system: Setaria faberi (SETFA); test: Post-emergence herbicide glasshouse test
Experimental: as §1

[6] = system: Amaranthus retoflexus (AMARE); test: Pre-emergence herbicide glasshouse test
Experimental: as §1

[7] = system: Echinochloa crus-galli (ECHCG); test: Pre-emergence herbicide glasshouse test
Experimental: as §1

[8] = system: Amaranthus palmeri (AMAPA); test: Pre-emergence herbicide glasshouse test
Experimental: as §1

[9] = system: Ipomoea hederacea (IPOHE); test: Pre-emergence herbicide glasshouse test
Experimental: as §1

[10] = system: Setaria faberi (SETFA); test: Pre-emergence herbicide glasshouse test
Experimental: as §1

| SMILES | percentage damage caused to the plant, AMARE [1] | percentage damage caused to the plant, ECHCG [2] | percentage damage caused to the plant, AMAPA [3] | percentage damage caused to the plant, IPOHE [4] | percentage damage caused to the plant, SETFA [5] | percentage damage caused to the plant, AMARE [6] | percentage damage caused to the plant, ECHCG [7] | percentage damage caused to the plant, AMAPA [8] | percentage damage caused to the plant, IPOHE [9] | percentage damage caused to the plant, SETFA [10] |
| --- | --- | --- | --- | --- | --- | --- | --- | --- | --- | --- |
| CC(Br)c1nc(C(F)(F)F)nc2cccc(Oc3ncc(Cl)cn3)c12 (stereo not drawn) [Compound 1.001, 4-(1-bromoethyl)-5-(5-chloropyrimidin-2-yl)oxy-2-(trifluoromethyl)quinazoline] | 3 (3=41-60%) | 1 (1=0-20%) | 3 (3=41-60%) | 3 (3=41-60%) | 1 (1=0-20%) | 2 (2=21-40%) | 1 (1=0-20%) | 3 (3=41-60%) | 1 (1=0-20%) | 2 (2=21-40%) |
| CC(=NOCC1CC1)c1nc(C(F)(F)F)nc2cccc(Oc3ncc(Cl)cn3)c12 [Compound 1.003] | 1 (1=0-20%) | 1 (1=0-20%) | 1 (1=0-20%) | 1 (1=0-20%) | 1 (1=0-20%) | 1 (1=0-20%) | 1 (1=0-20%) | 1 (1=0-20%) | 1 (1=0-20%) | 1 (1=0-20%) |
| FC(F)(F)c1nc(CCC=NOCC2CC2)c2c(Oc3ncc(Cl)cn3)cccc2n1 [Compound 1.005] | 4 (4=61-80%) | 4 (4=61-80%) | 5 (5=81-100%) | 2 (2=21-40%) | 4 (4=61-80%) | 3 (3=41-60%) | 4 (4=61-80%) | 5 (5=81-100%) | 1 (1=0-20%) | 5 (5=81-100%) |
| CCON=CCc1nc(C(F)(F)F)nc2cccc(Oc3ncc(Cl)cn3)c12 [Compound 1.006] | 3 (3=41-60%) | 1 (1=0-20%) | 2 (2=21-40%) | 1 (1=0-20%) | 1 (1=0-20%) | 1 (1=0-20%) | 1 (1=0-20%) | 3 (3=41-60%) | 1 (1=0-20%) | 1 (1=0-20%) |
| CON=CCc1nc(C(F)(F)F)nc2cccc(Oc3ncc(Cl)cn3)c12 [Compound 1.007] | 2 (2=21-40%) | 1 (1=0-20%) | 2 (2=21-40%) | 1 (1=0-20%) | 1 (1=0-20%) | 1 (1=0-20%) | 1 (1=0-20%) | 1 (1=0-20%) | 1 (1=0-20%) | 1 (1=0-20%) |
| FC(F)(F)c1nc(CC=NOCC2CC2)c2c(Oc3ncc(Cl)cn3)cccc2n1 [Compound 1.008, 2-[5-(5-chloropyrimidin-2-yl)oxy-2-(trifluoromethyl)quinazolin-4-yl]-N-(cyclopropylmethoxy) ethanimine] | 4 (4=61-80%) | 2 (2=21-40%) | 4 (4=61-80%) | 1 (1=0-20%) | 1 (1=0-20%) | 1 (1=0-20%) | 1 (1=0-20%) | 2 (2=21-40%) | 1 (1=0-20%) | 1 (1=0-20%) |
| CCO/N=C/CCc1nc(C(F)(F)F)nc2cccc(Oc3ncc(Cl)cn3)c12 [Compound 1.009] | 5 (5=81-100%) | 5 (5=81-100%) | 5 (5=81-100%) | 5 (5=81-100%) | 5 (5=81-100%) | 5 (5=81-100%) | 5 (5=81-100%) | 5 (5=81-100%) | 1 (1=0-20%) | 5 (5=81-100%) |
| CN(C)/C=C/c1nc(C(F)(F)F)nc2cccc(Oc3ncc(Cl)cn3)c12 [Compound 1.010, 2-[5-(5-chloropyrimidin-2-yl)oxy-2-(trifluoromethyl)quinazolin-4-yl]-N,N-dimethyl-ethenamine] | 3 (3=41-60%) | 1 (1=0-20%) | 3 (3=41-60%) | 1 (1=0-20%) | 1 (1=0-20%) | 2 (2=21-40%) | 1 (1=0-20%) | 2 (2=21-40%) | 1 (1=0-20%) | 1 (1=0-20%) |
| Fc1ccc(-c2nc(C(F)(F)F)nc3cccc(Oc4ncc(Cl)cc4F)c23)cc1 [Compound 1.040] | 2 (2=21-40%) | 1 (1=0-20%) | – | 2 (2=21-40%) | 1 (1=0-20%) | 1 (1=0-20%) | 1 (1=0-20%) | – | 1 (1=0-20%) | 1 (1=0-20%) |
| Fc1ccc(-c2nc(C(F)(F)F)nc3cccc(Oc4ncc(Cl)cn4)c23)cc1 [Compound 1.042] | 3 (3=41-60%) | 1 (1=0-20%) | – | 3 (3=41-60%) | 1 (1=0-20%) | 1 (1=0-20%) | 1 (1=0-20%) | – | 1 (1=0-20%) | 1 (1=0-20%) |
| C=CCCc1nc(C(F)(F)F)nc2cccc(Oc3ncc(Cl)cn3)c12 [Compound 1.043, 4-but-3-enyl-5-(5-chloropyrimidin-2-yl)oxy-2-(trifluoromethyl)quinazoline] | 5 (5=81-100%) | 4 (4=61-80%) | – | 3 (3=41-60%) | 4 (4=61-80%) | 4 (4=61-80%) | 5 (5=81-100%) | – | 1 (1=0-20%) | 5 (5=81-100%) |
| FC(F)(F)c1nc(CCC2CCOCC2)c2c(Oc3ncc(Cl)cn3)cccc2n1 [Compound 1.044] | 5 (5=81-100%) | 5 (5=81-100%) | – | 4 (4=61-80%) | 5 (5=81-100%) | 5 (5=81-100%) | 5 (5=81-100%) | – | 5 (5=81-100%) | 5 (5=81-100%) |
| N#CCCc1nc(C(F)(F)F)nc2cccc(Oc3ncc(Cl)cn3)c12 [Compound 1.046, 3-[5-(5-chloropyrimidin-2-yl)oxy-2-(trifluoromethyl)quinazolin-4-yl]propanenitrile] | – | 2 (2=21-40%) | 5 (5=81-100%) | 4 (4=61-80%) | 2 (2=21-40%) | 5 (5=81-100%) | 5 (5=81-100%) | 5 (5=81-100%) | 5 (5=81-100%) | 5 (5=81-100%) |
| Fc1cnc(Oc2cccc3nc(C(F)(F)F)nc(CCC4CC4)c23)nc1 [Compound 1.064] | 5 (5=81-100%) | 4 (4=61-80%) | 4 (4=61-80%) | 4 (4=61-80%) | – | 5 (5=81-100%) | 4 (4=61-80%) | 5 (5=81-100%) | 5 (5=81-100%) | – |
